What follows are molecules tested against T1, Human Recombinant Matriptase 2 (Homo sapiens, UniProt Q8IU80) (assay: Matriptase 2 inhibition, fluorescence based assay (Method I)). Conditions: Table A; Ki of Matriptase-2, class symbols; read-out: Mat-2 Ki.
T1 construct: made in house
T1 sequence (Q8IU80 1-811): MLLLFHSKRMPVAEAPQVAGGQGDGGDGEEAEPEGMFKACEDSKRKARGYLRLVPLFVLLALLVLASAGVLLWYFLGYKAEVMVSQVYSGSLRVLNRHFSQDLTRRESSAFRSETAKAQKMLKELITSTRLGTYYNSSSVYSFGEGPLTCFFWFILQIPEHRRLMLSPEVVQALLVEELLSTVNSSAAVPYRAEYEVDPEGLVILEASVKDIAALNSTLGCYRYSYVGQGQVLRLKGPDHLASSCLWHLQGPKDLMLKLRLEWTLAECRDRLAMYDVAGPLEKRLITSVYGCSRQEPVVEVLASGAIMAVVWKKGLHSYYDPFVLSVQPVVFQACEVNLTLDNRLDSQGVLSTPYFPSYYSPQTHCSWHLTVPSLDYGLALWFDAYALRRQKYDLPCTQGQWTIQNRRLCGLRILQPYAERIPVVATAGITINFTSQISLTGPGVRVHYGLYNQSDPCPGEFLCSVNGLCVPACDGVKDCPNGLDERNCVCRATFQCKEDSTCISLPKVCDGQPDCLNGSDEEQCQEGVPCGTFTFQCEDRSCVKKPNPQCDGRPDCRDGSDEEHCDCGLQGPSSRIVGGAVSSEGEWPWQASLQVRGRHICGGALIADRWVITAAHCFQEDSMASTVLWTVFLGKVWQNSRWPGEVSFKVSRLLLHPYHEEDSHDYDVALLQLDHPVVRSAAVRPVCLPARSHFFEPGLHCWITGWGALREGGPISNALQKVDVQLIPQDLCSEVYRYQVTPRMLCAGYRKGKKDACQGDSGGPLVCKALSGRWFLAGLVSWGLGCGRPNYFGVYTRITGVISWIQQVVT
Type: biochemical
Method: • Method I: Test compounds were evaluated for their potential to inhibit Human Recombinant Matriptase 2 (in-house) using fluorescence based assay. The concentration of Recombinant Matriptase 2 and the substrate used in the assay was: 3.5 nM (In-house Matriptase 2) and 62 μM (Boc-Gln-Ala-Arg-7-amido-4-methyl coumarin hydrobromide −Cat log: I-1550 from Bachem) respectively. The assay buffer used was 50 mM TRIS pH 7.5, 150 mM NaCl, 0.01% Gelatin TCL059 Himedia). The assay was performed using 384 well black flat bottom plate from grenier (Cat log: 781076) at 25° C. The enzyme and compound were preincubated for 30 mins, the plate was read at 60 mins after substrate addition at wavelength Ex: 360/Em: 480 nm. The final assay volume was 20 μl. A stock solution of compounds was initially prepared in DMSO and appropriate dilutions were made and IC50 was determined for all the compounds (final DMSO conc in the assay was 1%). All the measurements were carried out using the Spectramax M5, Molecular devices.
To determine Ki values, dose response curves were generated by plotting percentage inhibition as a function of inhibitor concentration and the data was fitted to sigmoidal non-linear regression equation (variable slope) using Graph Pad prism software V8.

Work on `CN1CCCC1COC(=O)Nc1cc(Cn2c(C(=O)O)cc3ccc(CN)cc32)c2ccccc2c1` (racemic) [Compound 398, 6-(aminomethyl)-1-{[3-({[(1-methylpyrrolidin-2-yl)methoxy]carbon-yl}amino]naphthalen-1-yl]methyl}-1H-indole-2-carboxylic acid] yielded a Ki of 500 to 3000 nM.

Same assay, conditions: Table A; Ki of Matriptase-2; read-out: Mat-2 Ki

In the case of `NCc1ccc2cc(C(=O)O)n(Cc3cc(NS(=O)(=O)CC[C@@H]4CCCN4)cc4ccccc34)c2n1` [Compound 1, (S)-6-(aminomethyl)-1-((3-((2-(pyrrolidin-2-yl)ethyl)sulfonamido)naphthalen-1-yl)methyl)-1H-pyrrolo[2,3-b]pyridine-2-carboxylic acid], the Ki is reported as ≤ 100 nM.

Same assay, conditions: Table A; Ki of Matriptase-2 given as class symbols; read-out: Mat-2 Ki

`CC(C)[C@H]1CCN(C(=O)Nc2cc(Cn3c(C(=O)O)cc4ccc(CN)nc43)c3ccccc3c2)C1` (racemic) [Compound 303, rac-6-(aminomethyl)-1-[(3-{[(3R)-3-(propan-2-yl)pyrrolidine-1-carbon-yl]amino}naphthalen-1-yl)methyl]-1H-pyrrolo-[2,3-b]pyridine-2-car-boxylic acid] and `CC[C@H]1CCCCN1C(=O)Nc1cc(Cn2c(C(=O)O)cc3ccc(CN)nc32)c2ccccc2c1` (racemic) [Compound 306, rac-6-(aminomethyl)-1-[(3-{[(2R)-2-ethylpiper-idine-1-carbonyl]amino}-naphthalen-1-yl)methyl]-1H-pyrrolo[2,3-b]pyr-idine-2-carboxylic acid] fall in the same range of Ki: 500 to 3000 nM for the first, 500 to 3000 nM for the second.

`CN1CCC[C@@H]1COC(=O)Nc1cc(Cn2c(C(=O)O)cc3ccc(CN)nc32)c2ccccc2c1` (racemic) [Compound 335, 6-(aminomethyl)-1-{[3-({[(1-methylpyrrolidin-2-yl)methoxy]carbon-yl}amino)naphthalen-1-yl]methyl}-1H-pyrrolo-[2,3-b]pyridine-2-car-boxylic acid] and `CN1CCO[C@@H](COC(=O)Nc2cc(Cn3c(C(=O)O)cc4ccc(CN)nc43)c3ccccc3c2)C1` (racemic) [Compound 337, 6-(aminomethyl)-1-{[3-({[(4-methylmorpholin-2-yl)methoxy]carbon-yl}amino)naphthalen-1-yl]methyl}-1H-pyrrolo-[2,3-b]pyridine-2-car-boxylic acid] fall in the same range of Ki: 100 to 500 nM for the first, 100 to 500 nM for the second.

`C[C@@H](CN1CCCCC1)OC(=O)Nc1cc(Cn2c(C(=O)O)cc3ccc(CN)nc32)c2ccccc2c1` (racemic) [Compound 339, rac-6-(aminomethyl)-1-({3-[({[(2R)-1-(piperidin-1-yl)propan-2-yl]oxy}-carbonyl)amino]naph-thalen-1-yl}methyl)-1H-pyrrolo[2,3-b]pyridine-2-carboxylic acid] and `NCc1ccc2cc(C(=O)O)n(Cc3cc(NC(=O)OC[C@H]4CCN4Cc4ccccc4)cc4ccccc34)c2n1` (racemic) [Compound 340, rac-6-(aminomethyl)-1-({3-[({[(2R)-1-benzyl-azetidin-2-yl]methoxy}-carbonyl)amino]naph-thalen-1-yl}methyl)-1H-pyrrolo[2,3-b]pyridine-2-carboxylic acid] fall in the same range of Ki: 500 to 3000 nM for the first, 500 to 3000 nM for the second.

First: CN1CCC(COC(=O)c2cc3ccc(CN)nc3n2Cc2cc(N[S@@+]([O-])Cc3ccccc3)cc3ccccc23)CC1 (racemic) [Compound 367]
Second: CC(c1ccccc1)S(=O)(=O)Nc1cc(Cn2c(C(=O)OCC3CCN(C)CC3)cc3ccc(CN)cc32)c2ccccc2c1 (racemic) [Compound 380, (1-methylpiperidin-4-yl)-methyl 6-(aminomethyl)-1-{[3-(1-phenylethane-sulfonamido)naphthalen-1-yl]methyl}-1H-indole-2-carboxylate]
The Ki of the first is higher: 500 to 3000 nM for the first, ≤ 100 nM for the second. The second binds more tightly here.

`CN1CCCC(COC(=O)c2cc3ccc(CN)cc3n2Cc2cc(NS(=O)(=O)Cc3ccccc3)cc3ccccc23)C1` (racemic) [Compound 382, (1-methylpiperidin-3-yl)-methyl 6-(aminomethyl)-1-{[3-(phenylmethane-sulfonamido)naphthalen-1-yl]methyl}-1H-indole-2-carboxylate] and `NCc1ccc2cc(C(=O)O)n(Cc3cc(NS(=O)(=O)C[C@H]4CNCCO4)cc4ccccc34)c2c1` (racemic) [Compound 391, 6-(aminomethyl)-1-({3-[(morpholin-2-l)methane-sulfonamido]naphthalen-1-yl}methyl)-1H-indole-2-carboxylic acid] cannot be ordered by Ki: ≤ 100 nM for the first, 100 to 500 nM for the second.

Same assay, conditions: Table B; Human Recombinant Matriptase 2, 3.5 nM enzyme, 62 μM substrate, 30 mins preincubation; read-out: Mean Ki

`CN1CCC(CCOC(=O)c2cc3ccc(CN)nc3n2Cc2cc(NS(=O)(=O)Cc3ccccc3)cc3c2CCCC3)CC1=O` (stereo not drawn) [Compound 2.1] and `CN1CCC(COC(=O)c2cc3ccc(CN)nc3n2Cc2cc(NS(=O)(=O)Cc3ccccc3)cc3c2CCCC3)CC1=O` (stereo not drawn) [Compound 2.19] cannot be ordered by Ki: 100 to 500 nM for the first, ≤ 100 nM for the second.

`CN1CCC(CCOC(=O)c2cc3ccc(CN)nc3n2Cc2cc(NS(=O)(=O)Cc3ccsc3)cc3c2CCCC3)CC1=O` (stereo not drawn) [Compound 2.2] and `CN1CCC(COC(=O)c2cc3ccc(CN)nc3n2Cc2cc(NS(=O)(=O)Cc3ccsc3)cc3c2CCCC3)CC1=O` (stereo not drawn) [Compound 2.22] cannot be ordered by Ki: 100 to 500 nM for the first, ≤ 100 nM for the second.

`CN1CCC(CCOC(=O)c2cc3ccc(CN)nc3n2Cc2cc(NS(=O)(=O)Cc3ccccc3)cc3ccccc23)CC1=O` (stereo not drawn) [Compound 2.3] and `CN1CC(CCOC(=O)c2cc3ccc(CN)nc3n2Cc2cc(NS(=O)(=O)Cc3ccccc3)cc3ccccc23)CC1=O` (stereo not drawn) [Compound 2.7] cannot be ordered by Ki: ≤ 100 nM for the first, ≤ 100 nM for the second.

`CN1CCC(CCOC(=O)c2cc3ccc(CN)nc3n2Cc2cc(NS(=O)(=O)Cc3ccsc3)cc3ccccc23)CC1=O` (stereo not drawn) [Compound 2.4] and `CN1CC(CCOC(=O)c2cc3ccc(CN)nc3n2Cc2cc(NS(=O)(=O)Cc3ccsc3)cc3ccccc23)CC1=O` (stereo not drawn) [Compound 2.6] cannot be ordered by Ki: ≤ 100 nM for the first, ≤ 100 nM for the second.

`CN(C)C(=O)CCCOC(=O)c1cc2ccc(CN)nc2n1Cc1cc(CS(=O)(=O)Cc2ccsc2)cc2ccccc12` [Compound 2.10] and `CN1CC(COC(=O)c2cc3ccc(CN)nc3n2Cc2cc(NS(=O)(=O)Cc3ccsc3)cc3ccccc23)CC1=O` (stereo not drawn) [Compound 2.20] cannot be ordered by Ki: ≤ 100 nM for the first, ≤ 100 nM for the second.

`NCc1ccc2cc(C(=O)OCC3CCNC(=O)C3)n(Cc3cc(NS(=O)(=O)Cc4ccsc4)cc4c3CCCC4)c2n1` (stereo not drawn) [Compound 2.11] and `NCc1ccc2cc(C(=O)OCC3CNC(=O)C3)n(Cc3cc(NS(=O)(=O)Cc4ccsc4)cc4ccccc34)c2n1` (stereo not drawn) [Compound 2.13] cannot be ordered by Ki: ≤ 100 nM for the first, ≤ 100 nM for the second.

`CN1CCC(CCOC(=O)c2cc3ccc(CN)nc3n2Cc2cc(NS(=O)(=O)Cc3ccccc3)c3ccccc3c2)CC1` [Compound 2.12] and `CN1CCC(COC(=O)c2cc3ccc(CN)nc3n2Cc2cc(NS(=O)(=O)Cc3ccccc3)c3ccccc3c2)CC1` [Compound 2.16] fall in the same range of Ki: 100 to 500 nM for the first, 100 to 500 nM for the second.

`CN1CCC(CCOC(=O)c2cc3ccc(CN)nc3n2Cc2cc(NS(=O)(=O)Cc3ccccc3)cc3c2CCCC3)CC1` [Compound 2.15] and `CN1CCC(CCCOC(=O)c2cc3ccc(CN)nc3n2Cc2cc(NS(=O)(=O)Cc3ccccc3)cc3ccccc23)CC1` [Compound 2.23] cannot be ordered by Ki: ≤ 100 nM for the first, ≤ 100 nM for the second.

`CN1CCC(COC(=O)c2cc3ccc(CN)nc3n2Cc2cc(NS(=O)(=O)Cc3ccsc3)cc3ccccc23)CCC1=O` (stereo not drawn) [Compound 2.17] and `CN1CCC(COC(=O)c2cc3ccc(CN)nc3n2Cc2cc(NS(=O)(=O)Cc3ccccc3)cc3ccccc23)CCC1=O` (stereo not drawn) [Compound 2.18] cannot be ordered by Ki: ≤ 100 nM for the first, ≤ 100 nM for the second.

`CN1CC(COC(=O)c2cc3ccc(CN)nc3n2Cc2cc(NS(=O)(=O)Cc3ccccc3)cc3ccccc23)CC1=O` (stereo not drawn) [Compound 2.21] and `CN(C)c1ccc(COC(=O)c2cc3ccc(CN)nc3n2Cc2cc(NS(=O)(=O)Cc3ccccc3)cc3ccccc23)cc1` [Compound 2.27] cannot be ordered by Ki: ≤ 100 nM for the first, 100 to 500 nM for the second.

`NCc1ccc2cc(C(=O)NCc3ccc(N)cc3)n(Cc3cc(NS(=O)(=O)Cc4ccccc4)cc4ccccc34)c2n1` [Compound 2.24] and `CB1C=Cc2c(Cn3c(C(=O)OCC4CCN(C)CC4)cc4ccc(CN)nc43)cc(NS(=O)(=O)Cc3ccccc3)cc2N1` [Compound 2.25] cannot be ordered by Ki: ≤ 100 nM for the first, ≤ 100 nM for the second.

First: CN1CCC(COC(=O)c2cc3ccc(CN)nc3n2Cc2cccn3nccc23)CC1 [Compound 2.26]
Second: CN1CCC(COC(=O)c2cc3ccc(CN)nc3n2Cc2cc(NS(=O)(=O)CC3CC3)cc3ccccc23)CC1 [Compound 2.28]
The Ki of the first is higher: > 3000 nM for the first, 100 to 500 nM for the second.

From patent US20240400553A1, “AMINE BASED MATRIPTASE 2 INHIBITORS AND USES THEREOF” (Disc Medicine, Inc., priority 2023, published 2024)
